Drawing on PMC7151638, “Investigation of a thermostable multi-domain xylanase-glucuronoyl esterase enzyme from Caldicellulosiruptor kristjanssonii incorporating multiple carbohydrate-binding modules” (Biotechnology for Biofuels, 2020), this text covers Km for two compounds.

The assay has as its target T1, CkGE15A (Caldicellulosiruptor acetigenus, UniProt E4S6E9).
T1 construct: gene Calkr_2245; CE15 glucuronoyl esterase domain only, cut from the 191-kDa multidomain protein (CBM22-CBM22-GH10-CBM9-CBM9-CBM9-CE15-cadherin-SLH-SLH); modified pET-28a with TEV site, E. coli BL21, Ni IMAC
T1 sequence (E4S6E9 1270-1690 limits assumed): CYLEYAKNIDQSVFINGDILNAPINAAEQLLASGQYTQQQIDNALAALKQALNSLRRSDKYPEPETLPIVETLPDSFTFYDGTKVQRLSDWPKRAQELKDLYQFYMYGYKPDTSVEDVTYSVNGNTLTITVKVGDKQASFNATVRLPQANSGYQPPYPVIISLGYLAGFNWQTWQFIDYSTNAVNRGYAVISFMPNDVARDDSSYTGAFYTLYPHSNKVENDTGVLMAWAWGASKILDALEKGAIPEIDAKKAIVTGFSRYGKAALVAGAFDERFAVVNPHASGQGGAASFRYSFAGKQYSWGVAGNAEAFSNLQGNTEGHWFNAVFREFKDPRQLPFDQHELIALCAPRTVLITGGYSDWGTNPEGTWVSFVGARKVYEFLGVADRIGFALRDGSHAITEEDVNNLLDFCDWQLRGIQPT
Put plainly: continuous coupled assay of uronic acid release (K-URONIC kit, NADH at […] nm). It counts as biochemical. The settings on record: 22 °C; pH 7.5; printed as 'Cannot be saturated up to 40 mM'.

Each structure is given as a SMILES string.

A word on the Km: it is the substrate concentration at which the rate is half of its maximum. Turning to `C=CCOC(=O)[C@H]1OC(O)[C@H](O)[C@@H](O)[C@@H]1O` (stereo partly drawn) [AllGlcA, Allyl-D-glucuronoate], the Km was over 40 mM.

For the compound `COC(=O)[C@H]1OC(O)[C@H](O)[C@@H](O)[C@@H]1O` (stereo partly drawn) [MeGlcA, Methyl-D-glucuronoate], the Km is over 40 mM.
